Here are results for 4 molecules from US20230140290A1, “SALICYLAMIDE DERIVATIVES AND RELATED METHODS OF MAKING” (THE BOARD OF REGENTS OF THE UNIVERSITY OF TEXAS SY, priority 2020, published 2023).

As a reminder, the IC50 is the concentration that gives 50% inhibition. Broadly, the inhibition is the percentage by which the read-out fell short of the control.

Structures are written as SMILES. Where two headings read alike, the source gives them in different places.

Series [1] concerns HAdV5-GFP. In words: Entry assay (HAdV5-mediated GFP expression). It is filed as cell-based, HAdV-5. To be noted: for (%) Inhibition Entry Assay (50 μM): 48 h; for inhibition at 50 µM: A549, 48 h, read-out: (%) Inhibition Entry Assay (50 μM). On the procedure: Entry Assay. The anti-HAdV activity was measured in an entry assay using human A549 epithelial cells (3×10^5 cells/well in coming black wall, clear bottom 96-well plates) infected with HAdV5-GFP (2000 vp/cell) in the presence 50 μM of the candidates and in a dose-response assay. A standard infection curve was generated in parallel by infecting cells in the absence of compounds using serial 2-fold dilutions of virus. All reactions were done in triplicate. Cells, virus, and drugs were incubated for 48 h at 37° C. and 5% CO2.

The test system of series [2] is HAdV5-GFP. The following applies: read-out: IC50, inhibition of HAdV infection; Marrugal-Lorenzo et al. 2019; cited from earlier work.
Series [3] is described as follows: Maximum tolerated dose (MTD). To be noted: immunosuppressed Syrian hamster, intraperitoneal. The protocol: Maximum tolerated dose (MTD). […] Before dosing, compounds were diluted in 10% DMSO, 10% Cremophor EL and 80% sodium chloride physiological solution. […] At day 14 animals were sacrificed with a lethal dose of thiopental. All inoculations were done via intraperitoneal.

The subject of the next series is HAdV5. Description: HAdV-mediated endosome disruption (α-sarcin co-delivery assay). The following applies: FIG. 11; A549, 5 μM, independent of virus concentration. It is filed as cell-based, HAdV-5.
In series [4] the test system is HAdV5-GFP. Description: Plaque assay (inhibition of HAdV plaque formation). Format: cell-based, HAdV-5. To be noted: for inhibition at 10 µM: read-out: Plaque Assay (%) Inhibition (10 μM); for Selectivity index (SI): ratio of CC50 to IC50 in plaque assay. An outline of the steps:
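Cells at 80-90% confluency infected with HAdV5-GFP at 0.06 vp/cell, rocked 2 h at 37° C, then washed with PBS. Compounds tested at 10 μM and in dose-response from 10 to 0.3 μM, included in the post-infection mixture.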

For series [5], the system named is HAdV5-GFP. Description: Time of addition assay. It is filed as cell-based, HAdV-5. The protocol:
Time of Addition Curve Study. […] Parallel samples of HAdV-5 were incubated with or without the selected derivatives on ice for 1 h. […] The derivatives were added at the indicated time points before or during this incubation. After a total of 2 h at 37° C., cells were incubated for an additional 48 h at 37° C. and 5% CO2 before being analyzed for GFP expression using the Typhoon 9410 imager (GE Healthcare Life Sciences) as above.
Time of Addition Assay. […] Parallel samples of HAdV-5 were incubated with or without the selected derivatives on ice for 1 h. […] The derivatives were added at the indicated time points before or during this incubation. After a total of 2 h at 37° C., cells were incubated for an additional 48 h at 37° C. and 5% CO2 before being analyzed for GFP expression using the Typhoon 9410 imager (GE Healthcare Life Sciences) as above.
Time of Addition Assay. […] Parallel samples of HAdV-5 were incubated with or without the selected compounds on ice for 1 h. […] Compounds 153 and 161 were added at the indicated time points before or during this incubation. After a total of 2 h at 37° C., cells were incubated for an additional 48 h at 37° C. and 5% CO2 before being analyzed for GFP expression using the Typhoon 9410 imager (GE Healthcare Life Sciences) as above.

Series [6] relates to wild-type HAdV5. Description: HAdV DNA quantification by real-time PCR (DNA replication). Format: cell-based, HAdV-5. To be noted: 24 h. The protocol:
DNA Quantification by Real-Time PCR. […] Infected cells were incubated 24 h at 37° C. in 500 μL of complete DMEM containing 25 μM of either compounds or the same volume of DMSO (positive control). All samples were done in duplicate. After 24 h of incubation at 37° C., DNA was purified from the cell lysate with the QIAamp DNA Mini Kit (QIAGEN, Valencia, Calif.) following the manufacturer's instructions. TaqMan primers and probes for a common region of the HAdV5 were designed with the GenScript Real-Time PCR (TaqMan) Primer Design software (GenScript). […] Real-time PCR mixtures consisted of 9.5 μL of the purified DNA, AQ1 and AQ2 at a concentration of 200 nM each and Probe at a concentration of 50 nM in a total volume of 25 μL. The PCR cycling protocol was 95° C. for 3 min followed by 40 cycles of 95° C. for 10 s and 60° C. for 30 s. Human glyceraldehyde-3-phosphate dehydrogenase (GAPDH) gene was used as internal control. Oligonucleotides sequences for GAPDH and conditions were those previously reported by Henke-Gendo et al. (2012).
For quantification, gene fragments from hexon, and GAPDH were cloned into the pGEM-T Easy vector (Promega) and known concentrations of template were used to generate a standard curve in parallel for each experiment. All assays were performed in thermal cycler LightCycler® 96 System (Roche).
(§1) HAdV DNA Quantification by Real-Time PCR. […] All samples were done in duplicate. After 24 h of incubation at 37° C., DNA was purified from the cell lysate with the E.Z.N.A.® Tissue DNA Kit (Omega Bio-tek, Norcross, Ga.) following the manufacturer's instructions. TaqMan primers and probes for a common region of the HAdV5 were designed with the GenScript Real-Time PCR (TaqMan) Primer Design software (GenScript). […] Real-time PCR mixtures consisted of 9.5 μL of the purified DNA, AQ1 and AQ2 at a concentration of 200 nM each and Probe at a concentration of 50 nM in a total volume of 25 μL. The PCR cycling protocol was 95° C. for 3 min followed by 40 cycles of 95° C. for 10 s and 60° C. for 30 s. Human glyceraldehyde-3-phosphate dehydrogenase (GAPDH) gene was used as internal control. Oligonucleotides sequences for GAPDH and conditions were those previously reported by Henke-Gendo et al. (2012).
as §1, with “DNA” for “HAdV DNA”
On the technique in general: Quantitative PCR measures a nucleic acid by following its amplification.

The subject of series [7] is wild-type HAdV5. In words: Nuclear-associated HAdV genomes (real-time PCR). Format: cell-based, HAdV-5. The protocol: (§2) Nuclear-Associated HAdV Genomes. The nuclear delivery of HAdV genomes was assessed by real-time PCR following nuclear isolation from infected cells. […] Forty-five minutes after infection, A549 cells were trypsinized and collected and then washed twice with PBS. Then, cytoplasmic and nuclear fractions were separated using a hypotonic buffer solution and NP-40 detergent. The cell pellet was resuspended in 500 μL of 1×hypotonic buffer (20 mM Tris-HCl pH 7.4, 10 mM NaCl, 3 mM MgCl2) and incubated for 15 min at 4° C. Then, 25 μL of NP-40 was added and the samples were vortexed. The homogenates were centrifuged for 10 min at 835 g at 4° C. Following the removal of the cytoplasmic fraction (supernatant), HAdV DNA was isolated from the nuclear fraction (pellet) and from the cytoplasmic fraction using the QIAamp DNA Mini Kit (QIAGEN, Valencia, Calif.).
as §2, with “E.Z.N.A.® Tissue” for “QIAamp”, “DNA” for “DNA Mini”, “(Omega Bio-tek, Norcross, Ga.).” for “(QIAGEN, Valencia, Calif.).”

For another series, the system named is HCMV. Description: HCMV DNA quantification by real-time PCR. Format: cell-based, human cytomegalovirus. To be noted: HFF cells, 72 h, 10-fold plaque IC50 (niclosamide 5 μM). The protocol:
HCMV DNA Quantification by Real-Time PCR. […] Then, cells were incubated for 72 h at 37° C. and 5% CO2 and HCMV DNA was purified from the cell lysate using the QIAamp DNA Mini Kit (Qiagen, Valencia, Calif.) following the manufacturer's instructions. Real-time PCR primers, mixtures and protocols were the same as previously reported (Sanchez-Cespedes et al., J. Med. Chem. 2016, 59, 5432-5448).

The next series has as its system A549 cells. Description: Cytotoxicity assay (AlamarBlue). To be noted: read-out: CC50 (μM), cytotoxic concentration 50%; A549 cell line, 48 h. The protocol:
(§3) Cytotoxicity Assay. The cytotoxicity of the compounds was analyzed by commercial kit AlamarBlue® (Invitrogen, Ref. DAL1025). A549 cells at a density of 5×10^3 cells per well in 96-well plates were seeded. […] Cells were then incubated at 37° C. for 48 h following the kit protocol. The cytotoxic concentration 50 (CC50) value was obtained using the statistical package GraphPad Prism. This assay was performed in duplicate.
For orientation: Resazurin is reduced to fluorescent resorufin, in cell work by metabolically active cells.

Series [8] is described as follows: Cytotoxicity assay (AlamarBlue). To be noted: human, A549 cells. The protocol: as §3
Where [9] appears, read: A549, read-out: IC50 Entry Assay (μM), HAdV5-GFP, high MOI, A549 cell line.
Where [10] appears, read: read-out: Plaque Assay IC50 (μM), HAdV5-GFP, low MOI, 293β5 cell line.
[11] abbreviates: FIG. 5A, 45 min post-infection, 10-fold plaque IC50.

For the molecule `O=C(Nc1ccc([N+](=O)[O-])cc1Cl)c1cc(Cl)ccc1O` [Compound 6, niclosamide, reference compound], the “(%) Inhibition Entry Assay (50 μM)” value in the series with HAdV5-GFP [1] (HAdV5-GFP, high MOI, A549 cell line) amounted to 100.0 ± 0.0%; with HAdV5-GFP [1] (HAdV5-GFP, high MOI, A549 cell line, listed as 73, 50 µM), 100 ± 0%. The IC50 was 1.22 ± 0.44 µM in the series with HAdV5-GFP [1] (HAdV5-GFP, high MOI, A549 cell line, read-out: IC50 Entry Assay); 600 nM in the series on HAdV5-GFP [2]; 0.6 µM with HAdV5-GFP [4] (HAdV5-GFP, low MOI, 293β5 cell line, read-out: Plaque Assay IC50). Moreover, the “doses showing high toxicity” value in [3] is given as ≥ 5 mg/kg. For the same molecule, the “rate of HPG incorporation compared to a control without α-sarcin” value in the series with HAdV5 is “under 50%”. The “Plaque Assay (%) Inhibition (10 μM)” value in the series with HAdV5-GFP [4] (HAdV5-GFP, 10 μM, low MOI, 293β5 cell line) is 100 ± 0%.
Regarding `O=C(Nc1ccc(C(F)(F)F)cc1Cl)c1cc(Cl)ccc1O` [Compound 14, 5-Chloro-N-(2-chloro-4-(trifluoromethyl)phenyl)-2-hydroxybenzamide], in the series with HAdV5-GFP [5] (FIG. 2, 10 μM), the “loss of inhibition when added between 5 and 10 min p.i.” value was found to be 20%. Besides, the inhibition at 50 µM in the series with HAdV5-GFP [1] stood at 100%. Besides, the values for the IC50 in the series on HAdV5-GFP [1] (setting [9]) and in the series on HAdV5-GFP [4] (setting [10]) were 1.67 ± 0.25 µM and 0.08 µM, respectively. Also, the “inhibition of HAdV-5 DNA replication (qPCR)” value in the series with wild-type HAdV5 [6] (FIG. 4, concentrations by CC50 (2-50 μM)) is reported as “significant (p≤0.0001) inhibitory activity”. Moreover, in the series with wild-type HAdV5 [7] (FIG. 3, 45 min post infection, concentrations by CC50 (2-50 μM)), the “amount of nuclear-associated HAdV genomes versus DMSO” value was “partially inhibited”. Moreover, the inhibition at 10 µM in the series with HAdV5-GFP [4] amounted to 100%.
Consider `O=C(Nc1ccc(NC2CCCC2)cc1Cl)c1cc(Cl)ccc1O` [Compound 78, 5-Chloro-N-(2-chloro-4-(cyclopentylamino)phenyl)-2-hydroxybenzamide], for which, in the series with HAdV5-GFP [1], the inhibition at 50 µM was determined as 27.5 ± 3.8%. Also, the IC50 in the series with HAdV5-GFP [1] (setting [9]) is > 50 µM; in the series with HAdV5-GFP [4] (setting [10]), 0.5 ± 0.1 µM. Moreover, the “decrease of total HCMV DNA compared to the DMSO control” value in the series with HCMV was “no significant inhibition”. Moreover, the CC50 with A549 cells turned out to be 92.9 ± 7.1 µM. Further, in the series with wild-type HAdV5 [6] (FIG. 6A, 10-fold plaque IC50), the “inhibition of HAdV-5 DNA replication (qPCR)” value is recorded as “moderate inhibition”. The “amount of nuclear-associated HAdV genomes versus DMSO” value in the series on wild-type HAdV5 [7] (setting [11]) is on record as “no significant differences”. In addition, the “Selectivity index (SI)” value in the series on HAdV5-GFP [4] is reported as 185.8. Besides, the inhibition at 10 µM in the series with HAdV5-GFP [4] turned out to be 100%.
With `CC(C)(C)OC(=O)N1CCC(CNc2ccc(NC(=O)c3cc(Cl)ccc3O)c(Cl)c2)CC1` [Compound 126, tert-Butyl 4-(((3-chloro-4-(5-chloro-2-hydroxybenzamido)phenyl)amino)methyl)piperidine-1-carboxylate], the “anti-HAdV activity when added between 10 and 20 min p.i.” value in the series on HAdV5-GFP [5] (FIG. 7, 10-fold plaque IC50) was “loses its anti-HAdV activity”. Besides, the inhibition at 50 µM in the series on HAdV5-GFP [1] is 67.6%. Moreover, the IC50 was < 3.13 µM in the series on HAdV5-GFP [1] (setting [9]) and 0.93 µM in the series on HAdV5-GFP [4] (setting [10]). In [8], the CC50 at 48 h came out at 95000 nM. For the same molecule, the “amount of nuclear-associated HAdV genomes versus DMSO” value with wild-type HAdV5 [7] (setting [11]) was “partially inhibited”. In addition, in the series with HAdV5-GFP [4], the “Selectivity index (SI)” value is 102.2. Also, in the series on HAdV5-GFP [4], the inhibition at 10 µM was determined as 97.8 ± 1.4%.
